Assay results reported in ChEMBL document CHEMBL1123386, “Substituted-vinyl hydroxytriarylethylenes, 1-[4-[2-(diethylamino) ethoxy]phenyl]-1-(4-hydroxyphenyl)-2-phenylethylenes: synthesis and effects on MCF 7 breast cancer cell proliferation” (J Med Chem, 1986).

Tested on: MCF7
Test: Compound was tested for binding affinity against nuclear ER in MCF-7 cell extracts
Format: functional, cell-based, Homo sapiens

First: CCN(CC)CCOc1ccc(/C(=C(/C#N)c2ccccc2)c2ccc(O)cc2)cc1
Second: CCN(CC)CCOc1ccc(/C(=C(/Br)c2ccccc2)c2ccc(O)cc2)cc1
The Kd of the first is 3.1-fold higher: 1.11 nM for the first, 0.36 nM for the second. The second binds more tightly here.

Going from `CCN(CC)CCOc1ccc(/C(=C(\c2ccccc2)[N+](=O)[O-])c2ccc(O)cc2)cc1` to `CCN(CC)CCOc1ccc(/C(=C(/Cl)c2ccccc2)c2ccc(O)cc2)cc1` [4-OH-ENCLOMIPHENE], the Kd falls from 0.56 nM to 0.11 nM (5.1-fold).

Going from `CCN(CC)CCOc1ccc(/C(=C\c2ccccc2)c2ccc(O)cc2)cc1` to `CC/C(=C(\c1ccc(O)cc1)c1ccc(OCCN(CC)CC)cc1)c1ccccc1`, the Kd falls from 1.11 nM to 0.29 nM (3.8-fold).
